Laboratory results: ChEMBL document CHEMBL3507680, “University of Dundee, Gates Library screen for HepG2 cell viability”

Experiment: Human HepG2 cell viability assay in 384 well format
Format: toxicity, cell-based
Set-up: dose 125 nL, time 70.5 hour; cytotoxicity at 70.5 h: concentration not given beside the values
Settings: HepG2 cells, read-out: Inhibition

| Structure (SMILES) | cytotoxicity at 70.5 h |
| --- | --- |
| CCN(CC)[C@@H]1CN(Cc2ccc(C)o2)[C@@H]2CCCO[C@H]12 | -14.1% |
| Cc1cc(N[C@H](CO)COCc2ccccc2)n2nc(C)cc2n1 | -0.86% |
| CC(=O)NCC[C@H]1CC(C)(C)Oc2ccccc21 | -4.17% |
| COCCc1noc(CN2CCc3nn(C(C)C)c(=O)cc3C2)n1 | 32.4% |
| CC(C)C(C(=O)N1CCN(Cc2ccncc2)CC1)n1cncn1 (stereo unspecified) | -9.68% |
| CC(NC(=O)NCCCN(C)S(C)(=O)=O)c1cccc(Cl)c1 (stereo unspecified) | -7.23% |
| Cc1cc(F)ccc1C(=O)N1CCN(C)C2(CCC(=O)N(C)CC2)C1 (stereo unspecified) | -9.21% |
| Cc1ncsc1C(=O)Nc1cccc(OCC(F)F)n1 | -8.57% |
| O=C(CC1CC1)NCc1cn2c(n1)CN(C(=O)C1CCOCC1)CC2 | -4.63% |
| CN(C)CCO[C@H]1CN(CC2CC2)[C@@H]2CCCO[C@H]12 | 11.6% |
| CC(C)N(CCNCc1ccc(C#N)cc1)C1CC1 | 17.7% |
| CS(=O)(=O)NC1CCN(Cc2ccc(OCc3ccccn3)cc2)CC1 | -5.51% |
| O=C(N1CCOCC1)[C@@]12CCO[C@@H]1CCN(CC1CCC1)C2 | -20.9% |
| COCCN(Cc1ccccc1)C(=O)c1csc(-c2nnc[nH]2)n1 | -5.25% |
| Cc1ccc(N2CCCC(Nc3nn4cc(C)nc4s3)C2)nn1 (stereo unspecified) | -9.29% |
| O=C(C(c1ccccc1)S(=O)(=O)c1ccccc1)N1CCCCC1 (stereo unspecified) | 3.14% |
| CC(C)(C)c1ccn(C2(C(=O)O)CCN(c3ccncc3F)CC2)n1 | -8.89% |
| O=C(N[C@@H]1CCNC[C@H]1O)c1ccccc1OC(F)(F)C(F)F | 0.818% |
| CN1CCCC1c1cncc(C(=O)NCc2ccccc2)n1 (stereo unspecified) | -2.59% |
| O=C(O)c1ccccc1-c1ccc(CN2CCC(CO)C2)cc1 (stereo unspecified) | -6.69% |
| CN(C)Cc1cccc(C(=O)N2CCCC(n3cncn3)C2)c1 (stereo unspecified) | -12.1% |
| O=C(NCc1ccccc1Cn1ccnc1)N1CCOCC1 | -9.82% |
| CCN(CC)Cc1nc2c(o1)CN(C(=O)c1ccc3[nH]ccc3c1)C2 | -17% |

| Structure (SMILES) | cytotoxicity at 70.5 h |
| --- | --- |
| Cc1cn(CC(=O)Nc2cc(C(C)(C)C)nn2C)cn1 | -5.53% |
| Cc1cc(NC(=O)CN(CC2CCOC2)C2CC2)no1 (stereo unspecified) | 0.647% |
| COCC1CN(S(=O)(=O)N(C)C)Cc2cnn(CC3CCCC3)c21 (stereo unspecified) | -5.7% |
| O=C(c1cnccn1)N1C[C@@H]2CCN(c3cccnc3)C[C@@H]2C1 | -9.4% |
| O=C(c1nccc2ccccc12)N(Cc1ccco1)CC1CCCO1 (stereo unspecified) | 9.69% |
| CN(C)C(=O)c1ccn(COc2ccccc2Cl)n1 | -2.41% |
| COc1cc(NC(=O)c2ccc(F)cc2Cl)c(C(=O)N(C)C)cc1OC | -8.85% |
| Cc1cnn(CCNCC(O)COc2ccc(C#N)cc2)c1 (stereo unspecified) | -5.86% |
| CC(C)Cc1noc(CN(C)C2CCCC2)n1 | 28.6% |
| CNC(=O)Cc1ccc(NC(=O)NCc2nc(C)sc2C)cc1 | 13.2% |
| COc1ccc(Br)cc1NCC(=O)NC(C)(C#N)C1CC1 (stereo unspecified) | 2.31% |
| Cc1cc(N2CCC3(CCC(=O)N(CCO)C3)CC2)nc(N(C)C)n1 | -3.81% |
| Cc1nccn1C1CCCN(C(=O)CCc2nc(C(C)C)no2)C1 (stereo unspecified) | -11.2% |
| CCNC(=O)CN1CCCC(c2ccc(C(=O)O)cc2)C1 (stereo unspecified) | 31.1% |
| Cc1nc(Nc2cnccn2)cc(C2CCN(CCO)C2)n1 (stereo unspecified) | -9.95% |
| Cc1ccccc1N1CC2(CCN(S(=O)(=O)c3cccs3)C2)CC1=O (stereo unspecified) | 14% |
| Cn1cc(CN2CCn3cc(CNC(=O)C4CCC4)nc3C2)cn1 | 2.26% |
| COCC(C)NC(=O)CSc1ccc(F)c(Cl)c1 (stereo unspecified) | 12% |
| CC(c1ncc(-c2ccccc2)o1)N1CCN(C(=O)C(C)(C)C)CC1 (stereo unspecified) | -25.9% |
| COc1c(NS(=O)(=O)c2cc(C)ccc2C)c(C)nn1C | -63.5% |
| O=C(NC1CC1)c1cc(NC(=O)N2CCOCC2)ccc1Cl | -15.3% |
| Cc1ccccc1OCC1CCCN(c2cc(N)nc(N)n2)C1 (stereo unspecified) | -8.34% |
| CN(CCn1ccc2ccccc21)C(=O)CS(C)(=O)=O | 18% |

| Structure (SMILES) | cytotoxicity at 70.5 h |
| --- | --- |
| CC(C)(C(=O)N1CCC(CS(N)(=O)=O)CC1)c1ccccc1F | 1.82% |
| N#Cc1cccc(CN2Cc3nccn3CC(CN3CCCC3)C2)c1 (stereo unspecified) | 0.61% |
| CN(C)CC1CN(CC(=O)N2CCc3ccccc32)CCO1 (stereo unspecified) | 11.8% |
| O=C(Nc1cccc(N2CCN(CC3CC3)CC2)c1)C1CCOC1 (stereo unspecified) | -4.69% |
| O=C(c1n[nH]cc1Cl)N1CCCC(n2nnc3cc(F)ccc32)C1 (stereo unspecified) | -5.16% |
| CC(C)CN(Cc1nc2c(cnn2C)c(=O)[nH]1)C(C)C | -2.34% |
| CN1C(=O)CO[C@H](c2ccc(NC(=O)c3cccc(F)c3)cc2)[C@H]1CO | -0.0128% |
| Cc1nc(N2CCC(CN3CCCC3)CC2)c2cnn(C)c2n1 | -2.49% |
| COc1cccc(CN2CC(O)CN(C(=O)C3CC3)CC2=O)c1OC (stereo unspecified) | 4.25% |
| COCC1CN(C(=O)c2cccs2)Cc2nccn2C1 (stereo unspecified) | -8.64% |
| c1cc2n(n1)CC(CNCc1ccc(OCC3CC3)nc1)CN2 (stereo unspecified) | 1.11% |
| C[C@@H]1CN(C2(C(=O)N3CCNCC3)Cc3ccccc3C2)C[C@H](C)O1 | -2.17% |
| CCOC(=O)c1c(NC(=O)C2CCN(C(C)=O)CC2)sc(C)c1CC | -6.22% |
| O=C(c1ccc(S(=O)(=O)N2CCSCC2)cc1)N1CCCCCC1 | 14.7% |
| COCCCn1cnnc1CNc1cc(C)nc2ccnn12 | -4.02% |
| Cc1sc(C(=O)N(C)S(C)(=O)=O)cc1-c1ccc(F)cc1 | -2.76% |
| Cc1ccc(C(=O)N2CCN(Cc3ccccc3)CC2)n1C | 21% |
| c1cnnc(N[C@@H]2CC[C@@H]3CN(Cc4ccc5[nH]ccc5c4)C[C@@H]32)c1 | 2.98% |
| COc1nn(C)c2c1CCCN(C(=O)c1cccs1)C2 | -23.5% |
| CN(C)c1cc2c(nn1)CCN(C(=O)Cc1ccc3c(c1)CCO3)C2 | -5.69% |
| CNC(=O)CN(C)c1cncc(OCC(C)C)n1 | -5.85% |
| COc1ncccc1CN1C[C@H](C(=O)N2CCCO2)[C@@H]2CCO[C@@H]2C1 | -6.23% |
| CCC[C@H]1CN(Cc2ccc3c(c2)OCCO3)C[C@@H]1NC(=O)COC | 3.4% |

| Structure (SMILES) | cytotoxicity at 70.5 h |
| --- | --- |
| CN(Cc1ccccc1OC(F)(F)F)C(=O)C1CCCN(C(N)=O)C1 (stereo unspecified) | -6.37% |
| O=C(NCc1ccc(Br)cc1)NCC1CCOC1 (stereo unspecified) | -10.4% |
| c1ccc(CN2CCO[C@H]3[C@H](OCCN4CCCC4)CC[C@@H]32)nc1 | -7.8% |
| OC(COCc1ccccc1)CN1CC(n2cccn2)C1 (stereo unspecified) | -3.54% |
| O=C(c1ccccn1)N1CCN(c2ccc(-n3cccc3)nn2)CC1 | -4.16% |
| Cc1ccsc1-c1nccn1CCS(C)(=O)=O | 16.2% |
| CCCS(=O)(=O)N1CC[C@@H]2[C@@H]1CC(=O)N2Cc1csc(C)n1 | -4.88% |
| CC(CNC(=O)NCc1ccco1)CC1(C)OCCO1 (stereo unspecified) | 15.5% |
| O=C(N1CCOCC1)N1CCC2(CC1)CN(c1ccccn1)CCO2 | -6.33% |
| CN1CCN(Cc2ccccc2CNC(=O)c2cc(Br)ccc2F)CC1 | 10.8% |
| Cn1cc(C2CCCN2Cc2csc(Cc3ccccc3)n2)cn1 (stereo unspecified) | -8.68% |
| Cc1csc(N2CCCN(C(=O)CCN3CCCC3=O)CC2)n1 | -8.02% |
| Cc1c(C)n2c(SCC(=O)N3CCCCCC3)nnc2[nH]c1=O | -7.58% |
| COCCC1(CNC(=O)Nc2ccc(-n3cccn3)cc2)CCC1 | 2.32% |
| Clc1ccc(C(CNCc2ccncc2)n2cccn2)cc1 (stereo unspecified) | -1.54% |
| CC(C)CC(=O)N1CC(=O)c2sc(NC3CCCCC3)nc2C1 | 1.17% |
| CCc1ccc(O)c(C(=O)N2CCN(CC(=O)N(C)C)CC2)c1 | -1.61% |
| c1csc(-c2noc(CCCN3CCCC3Cn3cncn3)n2)c1 (stereo unspecified) | 2.46% |
| Cn1ncc2c(N3CCC(CC(=O)N4CCCC4)CC3)ncnc21 | -4.03% |
| CN1C(=O)Cc2cc(-c3csc(CCN4CCOC4=O)n3)ccc21 | 6.81% |
| Cc1ccc(CN2CCC3(CC2)CC(CC(=O)NC(C)C)CO3)s1 (stereo unspecified) | -7.06% |
| CC(C)(C)c1cc(=O)n2c(n1)SCC(C(=O)NCc1ccccn1)C2 (stereo unspecified) | -5.78% |
| Cc1cc(C)cc(C2(C(=O)NCC(C)CN3CCCC3=O)CC2)c1 (stereo unspecified) | -8.76% |

| Structure (SMILES) | cytotoxicity at 70.5 h |
| --- | --- |
| COc1c(F)cc(-c2cccc3c2OC(CN)C3)cc1F (stereo unspecified) | 0.0982% |
| Cc1nc(C)n(CC2CCCN(CCc3ccccc3)C2)n1 (stereo unspecified) | 4.16% |
| O=C(C[C@@H]1COC[C@H]2CN(Cc3ccc(F)cc3)C[C@@H]12)N1CCCCO1 | -14.5% |
| CCC(O)CN(Cc1ccccc1)S(=O)(=O)c1cnc(C)s1 (stereo unspecified) | -9.64% |
| Cc1ncc(CN2CCc3c(nc(-c4ccccn4)[nH]c3=O)C2)n1C | -8.75% |
| CC(C)CCC(=O)N1CCC2(CC1)OCCO2 | -4.64% |
| O=C(Nc1ccccc1)[C@H]1C[C@@H]2CN(C(=O)Nc3ccccc3)C[C@H]1O2 | -27.2% |
| COc1ccc(-c2noc(-c3ccc(N4CCC[C@H]4CO)nc3)n2)cc1 | 10.2% |
| CC(C)c1nnc2n1CCN(C(=O)CN(C)Cc1ccccc1)C2 | -1.56% |
| Cc1cc(C)cc(NC(=O)Cc2c(C)nc3c(c2C)c(=O)[nH]n3C)c1 | -0.0448% |
| CCN(CC)CC[C@H]1CN(C(=O)C(C)(C)C)CC[C@H]1CC(=O)O | -8.97% |
| CCSCCC(C)N(C)C(=O)c1cc(C)on1 (stereo unspecified) | -3.26% |
| CC(=O)N[C@@H]1CN(C(=O)c2cnc3ccccc3c2)C[C@H]1O | 10.7% |
| CCC(c1nc(C(C)C)nn1-c1ccccn1)n1cccn1 (stereo unspecified) | 17.2% |
| CC(C)c1cc(N(C)Cc2noc(C3CCCC3)n2)n2nccc2n1 | -13.6% |
| c1cc(CN2CCC(c3ccncc3)CC2)cc(Cn2cccn2)c1 | -1.99% |
| CN(C)C(=O)N1C[C@@H]2CCCO[C@@H]2[C@H](N(C)Cc2ccco2)C1 | -11.5% |
| Cn1cc(S(=O)(=O)N2CCCC2Cn2ccnc2)cc1C(N)=O (stereo unspecified) | -5.85% |
| CCCn1nccc1-c1cc(C2CCN(S(C)(=O)=O)CC2)nc(C)n1 | -6.18% |
